From the NIST ThermoML archive (doi:10.1021/je049562e)
± gives the expanded uncertainty stated by the source.

Settings: Liquid, Twin ebulliometer

CCCCCCC [heptane]
Settings	vapor or sublimation pressure [kPa]
372.08 K	102.9 ± 0.065
374.5 K	110.39 ± 0.067
377.68 K	120.89 ± 0.074
384.39 K	145.56 ± 0.081
389.41 K	166.41 ± 0.09
393.58 K	185.5 ± 0.098
396.7 K	200.79 ± 0.11
401.26 K	224.89 ± 0.11
405.44 K	248.92 ± 0.12
409.66 K	275.09 ± 0.13
413.8 K	302.76 ± 0.15
419.17 K	341.76 ± 0.16
423.85 K	378.8 ± 0.17
428.69 K	420.15 ± 0.19
433.81 K	467.65 ± 0.2
438.86 K	518.27 ± 0.22
443.5 K	568.27 ± 0.23
447.95 K	619.76 ± 0.25
451.8 K	666.97 ± 0.27
456.35 K	726.16 ± 0.28
459.78 K	773.29 ± 0.3
465.07 K	850.62 ± 0.32
469.84 K	925.23 ± 0.34
473.39 K	983.9 ± 0.35
476.11 K	1030.6 ± 0.37
479.57 K	1092.4 ± 0.39
483.67 K	1169.4 ± 0.41
487.36 K	1242.3 ± 0.43
490.81 K	1313.4 ± 0.45
494.11 K	1384.2 ± 0.46
496.77 K	1443.4 ± 0.48
500.01 K	1518.2 ± 0.5
503.59 K	1604.1 ± 0.53
507.39 K	1699.5 ± 0.55
510.95 K	1793 ± 0.58
515.27 K	1911.6 ± 0.6
518.99 K	2019.1 ± 0.63
522.22 K	2116.1 ± 0.66
525.53 K	2219.7 ± 0.69
528.3 K	2309.8 ± 0.71
531.47 K	2416.5 ± 0.74
534.57 K	2525.7 ± 0.77
537.2 K	2621.8 ± 0.79
